Patent US5254801A, “Heterologous dominant conditional lethal gene which is a phosphonate monoester hydrolase and use thereof in plants” (Monsanto Company, priority 1990, dated 1993)

What was measured:
[1] = test system: E. coli MM294, JM101, JM101/MPU+, SR200/MPU; assay: In vivo (3-14C-) glyceryl glyphosate hydrolysis assay in whole cells; type: cell-based; settings: E. coli strains; three hour incubation, 30° C.
[2] = test system: pMON9443 transgenic Arabidopsis calli (pehA:2); assay: Callus viability on SIM medium with glyceryl glyphosate; type: cell-based
Experimental: (§1) Arabidopsis was cultured and transformed essentially as described by Valvekens et al., 1988. Arabidopsis ecotype RLD seeds were sterilized in 5% chlorox, 0.05%. Tween20 for 20 min, washed with sterile H2 O and plated on MSO medium (MS salts with minimal organics (Sigma), 0.5 g MES/l pH 5.7, 1% sucrose and 0.8% agar). After 3 weeks the roots were cut away from the shoots and precultured 3 days on callus inducing medium (CIM; Gamborg's B5 salts (Sigma), 2% glucose, 0.5 g/l MES, pH 5.7, 0.8% agar, 0.5 mg/l 2,4-D and 0.05 mg/l kinetin). The roots were than grouped in small bundles of 5-7 roots and cut into 0.5 cm pieces. The root pieces were mixed with a fresh overnight culture of ABI Agrobacterium containing a previously described plant gene expression vector diluted 1:20 in liquid MSO (without agar). After two minutes, the roots were transferred to fresh CIM plates for a two day co-culture. After co-culture, the root pieces were washed 2X with liquid MSO medium and plated on shoot inducing medium (SIM; Gamborg's B5 salts, 2% glucose, 0.5 g/l MES, pH 5.7, 5 mg/l N^6 -(2-isopentenyl)adenine, 0.15 mg/l indole-3-acetic acid, 500 mg/l carbenicillin, 100 mg/l kanamycin and 0.8% agar. Callus which continued to grow and remain green were transformed to fresh SIM after two weeks. As rosettes began to form, they were cut away from the callus and transferred to MSO medium with 1 mg/l indole-3-butyric acid in sterile sundae cups to initiate root formation. After the plants had formed roots they were transferred to soil and grown to maturity to obtain seed.
(§2) Arabidopsis calli transformed with either pMON9429 or pMON9443 which were expressing the selectable marker NPT-II gene as evidenced by growth on 100 μg/ml kanamycin were then evaluated for pehA expression. The calli were transferred to SIM medium containing 100 μg/ml kanamycin and 1 mM glyceryl glyphosate. After 4 weeks, calli were scored for growth and ability to initiate shoots and leaves (+) or for necrosis (-).

[3] = test system: GUS vector control Arabidopsis calli; assay: as above; type: cell-based
Experimental: as §1, §2

PG2982 crude extract = assay: In vitro radioactive hydrolysis assay in crude extracts; type: biochemical, Pseudomonas caryophilli; settings: strain PG2982
Excerpt: The enzymatic reaction can be assayed using labelled (3-^14 C-) glyceryl glyphosate as a substrate and following the conversion to (3-^14 C-)glyphosate as a product using a high pressure liquid chromatography system with a radioactive detector. This assay is the most specific for the phosphonate monoester hydrolase enzymes useful for conditional cell lethality. An enzyme assay consists of 40,000 cpm of labelled (3-^14 C-) glyceryl glyphosate (obtained from NEN Biochemicals), the PEH sample in buffer and buffer to 100 μl final volume. The assay buffer is 10 mM Bis-Tris propane, pH 9.0, plus 100 mM KCl. The reaction is run for 1 hour at 30° C. and then stopped by the addition of 100 μl "quench" which is 100 mM sodium acetate, pH 5.5, in ethanol. […] The radioactivity of the peaks is measured and integrated by a post-column detector. […]
Bacteria which grew in this medium using glyceryl glyphosate as a sole phosphate source had the ability to cleave both the ester and the phosphonate bond to release the free phosphate. […] After a three hour incubation period, the cells were pelleted in a microfuge and the supernatant injected onto an HPLC anion exchange column and glyphosate analyzed as described above. […] The pellet extract was then analyzed for glyphosate product as described above. […]

[4] = 1 mM glyceryl glyphosate, 4 weeks, 6 lines scored
[5] = 1 mM glyceryl glyphosate, 4 weeks, 12 lines scored

O=C(O)CNCP(=O)(O)OCC(O)CO (centres unmarked) [glyceryl glyphosate, glycine, N-([hydroxy (2,3 dihydroxy propoxy)phosphonyl]methyl)]
In vivo Hydrolysis of Glyceryl Glyphosate into Glyphosate [1]: No
Viability Score: Growth [2, 4]: 0 number of lines
Viability Score: Necrosis [2, 4]: 6 number of lines
Callus phenotype on protoxin (in words) ([2]; medium containing glyceryl glyphosate, pMON9443 calli): lethality
Viability Score: Growth [3, 5]: 12 number of lines
Viability Score: Necrosis [3, 5]: 0 number of lines
Callus growth on protoxin (in words) ([3]; 1 mM protoxin, control calli): able to grow
Hydrolysis of Glyceryl Glyphosate into Glyphosate in Crude Extracts (PG2982 crude extract): Yes
